Assay results published in ChEMBL document CHEMBL3045512, “Synthesis of some novel triazoloquinazolines and triazinoquinazolines and their evaluation for anti-inflammatory activity” (Med Chem Res, 2012).

How the values were obtained:
Mus musculus [1] = experiment: Toxicity in Mus musculus albino (mouse) assessed as serum gamma-glutamyl transferase level at 600 mg/kg, po for 10 days (reference value: 4.43 +/- 0.31 U/l); format: organism-based; design: dose 600 mg/kg, route oral; details: in vivo, 240 h
Mus musculus [2] = experiment: Toxicity in Mus musculus albino (mouse) assessed as serum ALP level at 600 mg/kg, po for 10 days (reference value: 31.63 +/- 3.73 U/l); format: organism-based; design: dose 600 mg/kg, route oral; details: in vivo, 240 h
Mus musculus [3] = experiment: Toxicity in Mus musculus albino (mouse) assessed as serum SGPT level at 600 mg/kg, po for 10 days (reference value: 35.82 +/- 5.26 U/l); format: organism-based; design: dose 600 mg/kg, route oral; details: in vivo, 240 h
Mus musculus [4] = experiment: Toxicity in Mus musculus albino (mouse) assessed as serum SGOT level at 600 mg/kg, po for 10 days (reference value: 9.74 +/- 1.73 U/l); format: organism-based; design: dose 600 mg/kg, route oral; details: in vivo, 240 h
Mus musculus [5] = experiment: Anti-inflammatory activity in Mus musculus albino (mouse) assessed as inhibition of formalin-induced paw swelling at 60 mg/kg, po administered 30 min prior formalin challenge measured after 120 min post challenge (reference value: 9.83 +/- 0.071 mm/min); format: functional
Mus musculus [6] = experiment: Anti-inflammatory activity in Mus musculus albino (mouse) assessed as inhibition of formalin-induced paw swelling at 60 mg/kg, po administered 30 min prior formalin challenge measured after 90 min post challenge (reference value: 9.5 +/- 0.04 mm/min); format: functional
Mus musculus [7] = experiment: Anti-inflammatory activity in Mus musculus albino (mouse) assessed as inhibition of formalin-induced paw swelling at 60 mg/kg, po administered 30 min prior formalin challenge measured after 60 min post challenge (reference value: 9.73 +/- 0.06 mm/min); format: functional
Mus musculus [8] = experiment: Anti-inflammatory activity in Mus musculus albino (mouse) assessed as inhibition of formalin-induced paw swelling at 60 mg/kg, po administered 30 min prior formalin challenge measured after 30 min post challenge (reference value: 9.46 +/- 0.035 mm/min); format: functional
Mus musculus [9] = experiment: Toxicity in Mus musculus albino (mouse) assessed as GPx activity per gram of Hb at 600 mg/kg, po for 10 days (Rvb =179.16 +/- 10.45 U/g Hb); format: organism-based; design: dose 600 mg/kg, route oral; details: in vivo, 240 h
Mus musculus [10] = experiment: Toxicity in Mus musculus albino (mouse) assessed as SOD activity per gram of Hb at 600 mg/kg, po for 10 days (reference value: 12.7 +/- 2.08 U/g Hb); format: organism-based; design: dose 600 mg/kg, route oral; details: in vivo, 240 h
Mus musculus [11] = experiment: Toxicity in Mus musculus albino (mouse) assessed as GSH activity at 600 mg/kg, po for 10 days (reference value: 59.57 +/- 5.10 %); format: organism-based; design: dose 600 mg/kg, route oral; details: in vivo, 240 h
Mus musculus [12] = experiment: Toxicity in Mus musculus albino (mouse) assessed as serum TBARS level at 600 mg/kg, po for 10 days (reference value: 4.35 +/- 0.86 U/l); format: organism-based; design: dose 600 mg/kg, route oral; details: in vivo, 240 h
Mus musculus [13] = experiment: Toxicity in Mus musculus albino (mouse) assessed as serum LDH level at 600 mg/kg, po for 10 days (reference value: 217.84 +/- 13.36 U/l); format: organism-based; design: dose 600 mg/kg, route oral; details: in vivo, 240 h
Mus musculus [14] = experiment: Toxicity in Mus musculus albino (mouse) assessed as GPx activity per gram of Hb at 300 mg/kg, po for 10 days (Rvb =179.16 +/- 10.45 U/g Hb); format: organism-based; design: dose 300 mg/kg, route oral; details: in vivo, 240 h
Mus musculus [15] = experiment: Toxicity in Mus musculus albino (mouse) assessed as SOD activity per gram of Hb at 300 mg/kg, po for 10 days (reference value: 12.7+/- 2.08 U/g Hb); format: organism-based; design: dose 300 mg/kg, route oral; details: in vivo, 240 h
Mus musculus [16] = experiment: Toxicity in Mus musculus albino (mouse) assessed as GSH activity at 300 mg/kg, po for 10 days (reference value: 59.57 +/- 5.10 %); format: organism-based; design: dose 300 mg/kg, route oral; details: in vivo, 240 h
Mus musculus [17] = experiment: Toxicity in Mus musculus albino (mouse) assessed as serum TBARS level at 300 mg/kg, po for 10 days (reference value: 4.35 +/- 0.86 U/l); format: organism-based; design: dose 300 mg/kg, route oral; details: in vivo, 240 h
Mus musculus [18] = experiment: Toxicity in Mus musculus albino (mouse) assessed as serum LDH level at 300 mg/kg, po for 10 days (reference value: 217.84 +/- 13.36 U/l); format: organism-based; design: dose 300 mg/kg, route oral; details: in vivo, 240 h
Mus musculus [19] = experiment: Toxicity in Mus musculus albino (mouse) assessed as serum gamma-glutamyl transferase level at 300 mg/kg, po for 10 days (reference value: 4.43 +/- 0.31 U/l); format: organism-based; design: dose 300 mg/kg, route oral; details: in vivo, 240 h
Mus musculus [20] = experiment: Toxicity in Mus musculus albino (mouse) assessed as serum ALP level at 300 mg/kg, po for 10 days (reference value: 31.63 +/- 3.73 U/l); format: organism-based; design: dose 300 mg/kg, route oral; details: in vivo, 240 h
Mus musculus [21] = experiment: Toxicity in Mus musculus albino (mouse) assessed as serum SGPT level at 300 mg/kg, po for 10 days (reference value: 35.82 +/- 5.26 U/l); format: organism-based; design: dose 300 mg/kg, route oral; details: in vivo, 240 h
Mus musculus [22] = experiment: Toxicity in Mus musculus albino (mouse) assessed as serum SGOT level at 300 mg/kg, po for 10 days (reference value: 9.74 +/- 1.73 U/l); format: organism-based; design: dose 300 mg/kg, route oral; details: in vivo, 240 h
Mus musculus [23] = experiment: Toxicity in Mus musculus albino (mouse) assessed as drop in temperature at extremeties at 90 to 340 mg/kg, ip; format: organism-based; design: dose 90-340 mg/kg, route intraperitoneal; details: in vivo
Mus musculus [24] = experiment: Toxicity in Mus musculus albino (mouse) assessed as bluish toe at 90 to 340 mg/kg, ip; format: organism-based; design: dose 90-340 mg/kg, route intraperitoneal; details: in vivo
Mus musculus [25] = experiment: Toxicity in Mus musculus albino (mouse) assessed as bluish skin at 90 to 340 mg/kg, ip; format: organism-based; design: dose 90-340 mg/kg, route intraperitoneal; details: in vivo
Mus musculus [26] = experiment: Toxicity in Mus musculus albino (mouse) assessed as brownish eye mucus at 90 to 340 mg/kg, ip; format: organism-based; design: dose 90-340 mg/kg, route intraperitoneal; details: in vivo
Mus musculus [27] = experiment: Toxicity in Mus musculus albino (mouse) assessed as tremor inhind limbs at 90 to 340 mg/kg, ip; format: organism-based, Limb; design: dose 90-340 mg/kg, route intraperitoneal; details: in vivo
Mus musculus [28] = experiment: Toxicity in Mus musculus albino (mouse) assessed as general depression at 90 to 340 mg/kg, ip; format: organism-based; design: dose 90-340 mg/kg, route intraperitoneal; details: in vivo
Mus musculus [29] = experiment: Toxicity in Mus musculus albino (mouse) assessed as rapid respiration at 90 to 340 mg/kg, ip; format: organism-based; design: dose 90-340 mg/kg, route intraperitoneal; details: in vivo
Mus musculus [30] = experiment: Toxicity in Mus musculus albino (mouse) assessed as increase in heart rate at 90 to 340 mg/kg, ip; format: organism-based; design: dose 90-340 mg/kg, route intraperitoneal; details: in vivo
Mus musculus [31] = experiment: Toxicity in ip dosed Mus musculus albino (mouse) assessed as mortality measured per gram body weight; format: organism-based; details: in vivo
Mus musculus [32] = experiment: Anti-inflammatory activity in Mus musculus albino (mouse) assessed as inhibition of formalin-induced paw swelling at 30 mg/kg, po administered 30 min prior formalin challenge measured after 120 min post challenge (reference value: 9.83 +/- 0.071 mm/min); format: functional
Mus musculus [33] = experiment: Anti-inflammatory activity in Mus musculus albino (mouse) assessed as inhibition of formalin-induced paw swelling at 30 mg/kg, po administered 30 min prior formalin challenge measured after 90 min post challenge (reference value: 9.5 +/- 0.04 mm/min); format: functional
Mus musculus [34] = experiment: Anti-inflammatory activity in Mus musculus albino (mouse) assessed as inhibition of formalin-induced paw swelling at 30 mg/kg, po administered 30 min prior formalin challenge measured after 60 min post challenge (reference value: 9.73 +/- 0.06 mm/min); format: functional
Mus musculus [35] = experiment: Anti-inflammatory activity in Mus musculus albino (mouse) assessed as inhibition of formalin-induced paw swelling at 30 mg/kg, po administered 30 min prior formalin challenge measured after 30 min post challenge (reference value: 9.46 +/- 0.035 mm/min); format: functional

COc1ccc2c(c1)c(CC(=O)O)c(C)n2C(=O)c1ccc(Cl)cc1 [INDOMETHACIN] gave an Activity (Mus musculus [1]) of 9.45 U/L, an Activity (Mus musculus [2]) of 76.41 U/L and an Activity (Mus musculus [3]) of 65.37 U/L. For the same compound, the Activity (Mus musculus [4]) was 24.51 U/L, the Activity (Mus musculus [5]) was 6.98 millimeter/min and the Activity (Mus musculus [6]) was 7.2 millimeter/min. The Activity (Mus musculus [7]) was 7.19 millimeter/min, the Activity (Mus musculus [8]) was 6.5 millimeter/min and the Activity (Mus musculus [9]) was 134 U/g Hb. It also gave an Activity (Mus musculus [10]) of 7.45 U/g Hb, an Activity (Mus musculus [11]) of 45.32% and an Activity (Mus musculus [12]) of 7.45 nmol/mL. For the same compound, the Activity (Mus musculus [13]) was 326.8 U/L.
In the case of CCOC(=O)c1nn2c(=O)c3ccccc3nc2n1-c1ccc(S(=O)(=O)NC(C)=O)cc1, the Activity (Mus musculus [14]) is reported as 177 U/g Hb, the Activity (Mus musculus [15]) is reported as 14 U/g Hb and the Activity (Mus musculus [16]) is reported as 58.63%. For the same compound, the Activity (Mus musculus [17]) was 4.02 nmol/mL, the Activity (Mus musculus [18]) was 215.78 U/L and the Activity (Mus musculus [19]) was 4.51 U/L. For the same compound, the Activity (Mus musculus [20]) was 28.95 U/L, the Activity (Mus musculus [21]) was 31.24 U/L and the Activity (Mus musculus [22]) was 10.66 U/L. For the same compound, the Activity (Mus musculus [23]) was “Toxic”, the Activity (Mus musculus [24]) was “Toxic” and the Activity (Mus musculus [25]) was “Toxic”. The Activity (Mus musculus [26]) was “Toxic”, the Activity (Mus musculus [27]) was “Toxic” and the Activity (Mus musculus [28]) was “Toxic”. The Activity (Mus musculus [29]) was “Toxic”, the Activity (Mus musculus [30]) was “Toxic” and the Activity (Mus musculus [31]) was 235 millimeter/min. For the same compound, the Activity (Mus musculus [32]) was 5.95 millimeter/min, the Activity (Mus musculus [33]) was 6 millimeter/min and the Activity (Mus musculus [34]) was 6.17 millimeter/min. For the same compound, the Activity (Mus musculus [35]) was 6.37 millimeter/min.
